Molecular target: GCase enzyme (Cerezyme, recombinant human GCase) (Homo sapiens, UniProt P04062, R534H)
Sequence (P04062 40-536 R534H limits assumed): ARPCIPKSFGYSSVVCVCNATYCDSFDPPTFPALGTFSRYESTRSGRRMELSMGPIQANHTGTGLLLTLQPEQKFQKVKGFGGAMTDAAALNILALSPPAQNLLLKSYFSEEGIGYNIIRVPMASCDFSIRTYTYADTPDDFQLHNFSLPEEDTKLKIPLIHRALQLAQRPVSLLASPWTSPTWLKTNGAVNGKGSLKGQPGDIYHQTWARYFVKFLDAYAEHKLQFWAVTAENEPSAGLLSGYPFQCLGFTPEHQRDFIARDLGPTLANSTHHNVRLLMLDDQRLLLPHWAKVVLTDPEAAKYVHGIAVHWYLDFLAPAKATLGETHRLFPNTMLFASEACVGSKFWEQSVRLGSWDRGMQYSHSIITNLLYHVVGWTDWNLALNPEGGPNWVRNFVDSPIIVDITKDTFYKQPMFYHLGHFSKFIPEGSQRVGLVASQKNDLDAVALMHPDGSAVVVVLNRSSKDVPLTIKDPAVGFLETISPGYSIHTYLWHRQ

Row | Structure (SMILES) | IC50 | Ki
1 | CNC(=O)[C@@H]1[C@@H](O)[C@H](O)CNC12CC2 [Example 10, (6R,7R,8S)-6,7-dihydroxy-N-methyl-4-azaspiro[2.5]octane-8-carboxamide] | 264 nM | 
2 | O[C@H]1[C@H](O)CNC2(CC2)[C@@H]1C#CCF [Example 25, (6R,7R,8S)-8-(3-fluoroprop-1-yn-1-yl)-4-azaspiro[2.5]octane-6,7-diol] | 16 nM | 15 nM
3 | OCC#C[C@@H]1[C@@H](O)[C@H](O)CNC12CC2 [Example 24, (6R,7R,8S)-8-(3-hydroxyprop-1-yn-1-yl)-4-azaspiro[2.5]octane-6,7-diol] | 17 nM | 
4 | O[C@H]1[C@H](O)CNC2(CC2)[C@@H]1C=C(F)F [Example 19, (6R,7R,8S)-8-(2,2-difluorovinyl)-4-azaspiro[2.5]octane-6,7-diol] | 75 nM | 
5 | O=C(NC1CC1)[C@@H]1[C@@H](O)[C@H](O)CNC12CC2 [Example 11, (6R,7R,8S)-N-cyclopropyl-6,7-dihydroxy-4-azaspiro[2.5]octane-8-carboxamide] | 462 nM | 
6 | O[C@H]1[C@H](O)CNC2(CC2)[C@@H]1CCF [Example 14, (6R,7R,8S)-8-(2-fluoroethyl)-4-azaspiro[2.5]octane-6,7-diol] | 27 nM | 
7 | O[C@H]1[C@H](O)CNC2(CC2)[C@@H]1C#CC(F)F [Example 26, (6R,7R,8S)-8-(3,3-difluoroprop-1-yn-1-yl)-4-azaspiro[2.5]octane-6,7-diol] | 22 nM | 17 nM
8 | N#C[C@@H]1[C@@H](O)[C@H](O)CNC12CC2 [Example 8, (6R,7R,8R)-6,7-dihydroxy-4-azaspiro[2.5]octane-8-carbonitrile] | 75 nM | 
9 | O[C@H]1[C@H](O)CNC2(CC2)[C@@H]1/C=C\F [Example 17, (6R,7R,8S)-8-((Z)-2-fluorovinyl)-4-azaspiro[2.5]octane-6,7-diol] | 36 nM | 
10 | O=C(O)[C@@H]1[C@@H](O)[C@H](O)CNC12CC2 [Example 9, (6R,7R,8S)-6,7-dihydroxy-4-azaspiro[2.5]octane-8-carboxylic acid] | 507 nM | 
11 | CC1(C)NC[C@@H](O)[C@H](O)[C@H]1CO [(3R,4R,5R)-5-(hydroxymethyl)-6,6-dimethylpiperidine-3,4-diol, reference compound] | 3440 nM | 
12 | CO[C@@H]1[C@@H](O)[C@H](O)CNC12CC2 [Example 7, (6R,7S,8S)-8-methoxy-4-azaspiro[2.5]octane-6,7-diol] | 32 nM | 
13 | O[C@H]1[C@H](O)CNC2(CC2)[C@@H]1/C=C/F [Example 18, (6R,7R,8S)-8-((E)-2-fluorovinyl)-4-azaspiro[2.5]octane-6,7-diol] | 20 nM | 
14 | O[C@H]1[C@H](O)CNC2(CC2)[C@@H]1CF [Example 3, (6R,7R,8S)-8-(fluoromethyl)-4-azaspiro[2.5]octane-6,7-diol] | 6.2 nM | 2.1 nM

Continued by falling IC50, values first:

Row | IC50 | Ki | Structure (SMILES)
15 | 15 nM |  | CCC[C@@H]1[C@@H](O)[C@H](O)CNC12CC2 [Example 13, (6R,7R,8S)-8-propyl-4-azaspiro[2.5]octane-6,7-diol]
16 | 13 nM | 7 nM | OC[C@@H]1[C@@H](O)[C@H](O)CNC12CC2 [Example 2, (6R,7R,8R)-8-(hydroxymethyl)-4-azaspiro[2.5]octane-6,7-diol]
17 | 13 nM | 7.9 nM | C#C[C@@H]1[C@@H](O)[C@H](O)CNC12CC2 [Example 20, (6R,7R,8S)-8-ethynyl-4-azaspiro[2.5]octane-6,7-diol]
18 | 11 nM |  | O[C@H]1[C@H](O)CNC2(CC2)[C@@H]1C#CCC(F)F [Example 28, (6R,7R,8S)-8-(4,4-difluorobut-1-yn-1-yl)-4-azaspiro[2.5]octane-6,7-diol]
19 | 9.7 nM | 6.7 nM | CC#C[C@@H]1[C@@H](O)[C@H](O)CNC12CC2 [Example 21, (6R,7R,8S)-8-(prop-1-yn-1-yl)-4-azaspiro[2.5]octane-6,7-diol]
20 | 7.5 nM |  | COC[C@@H]1[C@@H](O)[C@H](O)CNC12CC2 [Example 6, (6R,7R,8R)-8-(methoxymethyl)-4-azaspiro[2.5]octane-6,7-diol]
21 | 7.4 nM |  | O[C@H]1[C@H](O)CNC2(CC2)[C@@H]1CCl [Example 5, (6R,7R,8S)-8-(chloromethyl)-4-azaspiro[2.5]octane-6,7-diol]
22 | 6.8 nM | 7.6 nM | C=C[C@@H]1[C@@H](O)[C@H](O)CNC12CC2 [Example 16, (6R,7R,8S)-8-vinyl-4-azaspiro[2.5]octane-6,7-diol]
23 | 6.7 nM |  | CCCC#C[C@@H]1[C@@H](O)[C@H](O)CNC12CC2 [Example 23, (6R,7R,8S)-8-(pent-1-yn-1-yl)-4-azaspiro[2.5]octane-6,7-diol]
24 | 6.5 nM | 8 nM | O[C@H]1[C@H](O)CNC2(CC2)[C@@H]1C(F)F [Example 4, (6R,7R,8S)-8-(difluoromethyl)-4-azaspiro[2.5]octane-6,7-diol]
25 | 6.3 nM |  | CC[C@@H]1[C@@H](O)[C@H](O)CNC12CC2 [Example 12, (6R,7R,8S)-8-ethyl-4-azaspiro[2.5]octane-6,7-diol]
26 | 3.7 nM | 2.6 nM | C[C@@H]1[C@@H](O)[C@H](O)CNC12CC2 [Example 1, (6R,7R,8S)-8-methyl-4-azaspiro[2.5]octane-6,7-diol]
27 | 2.5 nM |  | O[C@H]1[C@H](O)CNC2(CC2)[C@@H]1C#CCCF [Example 27, (6R,7R,8S)-8-(4-fluorobut-1-yn-1-yl)-4-azaspiro[2.5]octane-6,7-diol]
28 | 2.4 nM |  | CCC#C[C@@H]1[C@@H](O)[C@H](O)CNC12CC2 [Example 22, (6R,7R,8S)-8-(but-1-yn-1-yl)-4-azaspiro[2.5]octane-6,7-diol]
